Data reported in publication PMC5435455 (ACS Chemical Biology, 2017).
Like-named read-outs stand apart in the source and are kept apart here.

Key:
[1] = biological target: T1, Pisum sativum agglutinin (PSA, pea lectin) (Lathyrus oleraceus, UniProt P02867); test: ITC at […] K; format: binding
T1 sequence (P02867 31-217): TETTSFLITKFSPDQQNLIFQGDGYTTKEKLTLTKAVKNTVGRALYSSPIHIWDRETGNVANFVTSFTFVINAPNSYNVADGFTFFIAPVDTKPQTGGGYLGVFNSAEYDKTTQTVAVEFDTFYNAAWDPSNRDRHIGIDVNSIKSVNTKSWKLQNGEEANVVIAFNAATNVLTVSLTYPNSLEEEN
T1 sequence (P02867 218-275): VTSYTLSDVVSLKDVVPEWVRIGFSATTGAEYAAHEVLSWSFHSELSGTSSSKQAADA

[2] = biological target: T1, Pisum sativum agglutinin (PSA, pea lectin); test: ITC at […] K; format: binding; remark: listed apart in the source

Kd [1]	Kd [2]	SMILES
806 ± 32 µM	–	CO[C@H]1O[C@H](CO)[C@@H](O)[C@H](O)[C@@H]1O [compound 1, methyl α-D-mannopyranoside]
–	621 ± 11 µM	OC[C@H]1O[C@H](OC[C@H]2O[C@H](O)[C@@H](O)[C@@H](O[C@H]3O[C@H](CO)[C@@H](O)[C@H](O)[C@@H]3O)[C@@H]2O)[C@@H](O)[C@@H](O)[C@@H]1O [compound 2, 3,6-di-O-(α-D-mannopyranosyl)-α-D-mannopyranose]
